In paper PMC12376128, “In vitro and In Vivo Drug Metabolism Analysis of BPI-460372 - A Covalent TEAD1/3/4 Inhibitor” (Current Drug Metabolism, 2025):

Legend:
[1] = biological target: T1, recombinant human CYP3A4 (Homo sapiens, UniProt P08684); assay: Metabolic stability in recombinant human CYP isoenzymes; type: in vitro ADME; details: rCYP3A4 100 pmol P450/mL, 1 µM
T1 construct: purchased Cypex Ltd. (Dundee, UK)
Method: (§1) To identify the specific isoform that participates in the metabolism of BPI-460372, 1 µM BPI-460372 or positive control substrates were mixed with recombinant human CYP1A2, 2B6, 2C8, 2C9, 2C19, 2D6 or 3A4 (100 pmol P450·mL^-1), and the reaction was started by the addition of NADPH (1 mM final concentration) after 5-minute preincubation at 37°C. Aliquots were maintained in acetonitrile containing IS at different time points at 0 min, 5 min, 10 min, 20 min, 30 min, and 60 min. All incubations were performed in triplicate, and the concentration of the supernatant was determined by LC-MS/MS.
(§2) A substrate depletion approach was employed to determine the intrinsic clearance (CLint (rCYPj)) for each isoform. The contribution of each isoform was estimated using equations 2 and 3. CYPj abundance was evaluated as the abundance (CYPj) of each isoform in HLMs (pmol/mg protein).

[2] = biological target: T2, recombinant human CYP2C8 (Homo sapiens, UniProt P10632); assay: as above; type: in vitro ADME; details: rCYP2C8 100 pmol P450/mL, 1 µM
T2 construct: purchased Cypex Ltd. (Dundee, UK)
T2 sequence (P10632 1-490): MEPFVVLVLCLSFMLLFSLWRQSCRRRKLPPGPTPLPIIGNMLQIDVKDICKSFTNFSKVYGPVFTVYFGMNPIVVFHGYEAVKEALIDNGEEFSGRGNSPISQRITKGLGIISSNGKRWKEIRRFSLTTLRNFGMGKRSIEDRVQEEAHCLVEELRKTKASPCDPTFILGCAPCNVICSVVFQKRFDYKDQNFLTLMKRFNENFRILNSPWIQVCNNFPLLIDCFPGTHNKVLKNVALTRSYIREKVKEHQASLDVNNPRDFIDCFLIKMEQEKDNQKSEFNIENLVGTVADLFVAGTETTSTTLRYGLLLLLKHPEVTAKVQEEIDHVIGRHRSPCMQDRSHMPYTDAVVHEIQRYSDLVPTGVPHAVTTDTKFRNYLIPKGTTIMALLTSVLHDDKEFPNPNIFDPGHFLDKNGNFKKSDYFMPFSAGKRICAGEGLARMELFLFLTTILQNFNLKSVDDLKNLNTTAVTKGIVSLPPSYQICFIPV
Method: as §1, §2

[3] = Stability in plasma; type: in vitro ADME; details: rat plasma, 37°C, 4 h
[4] = In vivo clearance; details: monkeys
[5] = in vitro; details: hepatocytes
Method: (§3) After mixing, 20 μL of cell suspension was serially transferred into 200 μL of cold acetonitrile containing IS at the time points of 0, 5, 15, 30, 60, and 120 min, respectively.
(§4) The metabolic stability was assessed by measuring the depletion of substrate. The half-life (t1/2), intrinsic clearance (CLint, in virto, µL·min^-1·million cells^-1), whole liver intrinsic clearance (CLint, in vivo, mL·min-1·kg^-1), and in vivo hepatic clearance (CLH, mL·min-1·kg^-1) were calculated following a reported method. In the calculation of CLH, the fraction drug unbound (Fub) was set as 1. The hepatic blood flow, liver weight, and hepatocellularity of five species were used for the calculation of CLint, in vivo [13, 14]. The hepatic extraction ratio (Eh) means the ratio of CLH to hepatic blood flow.

[6] = test system: human hepatocytes; assay: in vitro
Method: as §3, §4

[7] = test system: monkey hepatocytes; assay: in vitro
Method: as §3, §4

[8] = test system: rat hepatocytes; assay: in vitro
Method: as §3, §4

[9] = test system: dog hepatocytes; assay: in vitro
Method: as §3, §4

[10] = test system: mouse hepatocytes; assay: in vitro
Method: as §3, §4

[11] = test system: dog hepatocytes; assay: Metabolism and metabolite formation in hepatocytes; type: in vitro ADME, beagle dog; details: beagle dog hepatocytes, 10 µM BPI-460372, 4 h incubation
From the text: All the samples were duplicates.

[12] = test system: cysteine S-conjugate β-lyase; assay: Effect of cysteine S-conjugate β-lyase inhibitor AOAA on the metabolism of BPI-460372 (rat urine); details: 20 mg/kg BPI-460372 + 100 mg/kg AOAA, once daily 21 days, urine 0-48 h on day 21
Method: To investigate the effect of cysteine S-conjugate β-lyase on the metabolism of BPI-460372, SD rats were treated with 20 mg/kg BPI-460372 alone (n=3, male) or 20 mg/kg BPI-460372 coadministration with 100 mg/kg cysteine S-conjugate β-lyase inhibitor AOAA (n=3, male), once daily for 21 consecutive days. On day 21, urine samples were collected at 0-8, 8-24 and 24-48 h. The same percentage of urine samples from each rat was taken at these three time intervals and mixed. The samples were analyzed by LC-MS/MS and then semi-quantified using the peak area ratio of analyte versus IS.

T1 sequence (P08684 whole entry): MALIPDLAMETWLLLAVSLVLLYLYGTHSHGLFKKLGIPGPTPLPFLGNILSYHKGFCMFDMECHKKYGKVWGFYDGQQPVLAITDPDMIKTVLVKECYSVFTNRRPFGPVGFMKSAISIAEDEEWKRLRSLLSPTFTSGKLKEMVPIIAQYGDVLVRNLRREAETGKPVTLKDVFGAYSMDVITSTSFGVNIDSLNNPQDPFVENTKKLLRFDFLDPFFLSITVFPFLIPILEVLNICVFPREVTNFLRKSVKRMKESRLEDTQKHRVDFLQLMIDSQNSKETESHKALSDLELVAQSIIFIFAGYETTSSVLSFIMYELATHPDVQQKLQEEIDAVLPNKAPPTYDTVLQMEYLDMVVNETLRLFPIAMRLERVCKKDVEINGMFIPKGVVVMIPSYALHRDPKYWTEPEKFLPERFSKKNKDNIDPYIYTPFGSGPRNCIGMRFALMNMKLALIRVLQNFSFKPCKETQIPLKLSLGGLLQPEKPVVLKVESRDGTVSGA

C=C(F)C(=O)N1CC(n2c(=O)n(-c3ccc(C(F)(F)F)cc3)c3nccnc32)C1 [BPI-460372]
Contribution [1]: 28.3%
Contribution [2]: 8.8%
Stability in plasma [3]: stable
Clearance in vivo [4]: low clearance
half-life at 1 µM ([5]; ICR, mouse): 2.23 h
half-life at 1 µM ([5]; SD, rat): 3.93 h
half-life at 1 µM ([5]; beagle, dog): 3.19 h
half-life at 1 µM ([5]; human): 15.5 h
half-life at 1 µM ([5]; monkey): 2.79 h
CLint, in vivo ([6]; hepatocytes): 2.7 mL/min/kg
CLH ([6]; human, 1 µM): 2.4 mL/min/kg
Eh ([6]; human, 1 µM): 0.115
CLint, in virto ([6]; human, hepatocytes): 0.746 µL·min^-1·Million cells^-1
Clearance class from Eh ([6]; human, hepatocytes): low clearance
Remaining percentage after 120 min incubation ([6]; human, hepatocytes, 2 h, 1 µM): 97.3%
CLH ([7]; cynomolgus monkey, 1 µM): 11.1 mL/min/kg
Eh ([7]; cynomolgus monkey, 1 µM): 0.253
CLint, in vivo ([7]; hepatocytes): 14.9 mL/min/kg
CLint, in virto ([7]; monkey, hepatocytes): 4.145 µL·min^-1·Million cells^-1
Clearance class from Eh ([7]; monkey, hepatocytes): low clearance
Remaining percentage after 120 min incubation ([7]; monkey, hepatocytes, 2 h, 1 µM): 61.7%
CLH ([8]; SD, rat, 1 µM): 11.0 mL/min/kg
Eh ([8]; SD, rat, 1 µM): 0.200
Remaining percentage after 120 min incubation ([8]; SD, rat, hepatocytes, 2 h, 1 µM): 72.4%
CLint, in vivo ([8]; hepatocytes): 13.8 mL/min/kg
CLint, in virto ([8]; rat, hepatocytes): 2.941 µL·min^-1·Million cells^-1
Clearance class from Eh ([8]; rat, hepatocytes): low clearance
CLH ([9]; beagle, dog, 1 µM): 13.8 mL/min/kg
Eh ([9]; beagle, dog, 1 µM): 0.446
Remaining percentage after 120 min incubation ([9]; beagle, dog, hepatocytes, 2 h, 1 µM): 66.6%
CLint, in virto ([9]; dog, hepatocytes): 3.619 µL·min^-1·Million cells^-1
Clearance class from Eh ([9]; dog, hepatocytes): moderate clearance
CLint, in vivo ([9]; hepatocytes): 24.9 mL/min/kg
CLH ([10]; ICR, mouse, 1 µM): 36.6 mL/min/kg
Eh ([10]; ICR, mouse, 1 µM): 0.406
Remaining percentage after 120 min incubation ([10]; ICR, mouse, hepatocytes, 2 h, 1 µM): 54.7%
CLint, in vivo ([10]; hepatocytes): 61.6 mL/min/kg
CLint, in virto ([10]; mouse, hepatocytes): 5.187 µL·min^-1·Million cells^-1
Clearance class from Eh ([10]; mouse, hepatocytes): moderate clearance
UV (314 nm) Peak Areas Relative Abundance [11]: 48.28%
Area ratio in rat urine, mean (%CV) [12]: 1.48 (69)
